Results reported in patent publication US8067532B2, “Modifications of peptide compositions to increase stability and delivery efficiency” (KAI Pharmaceuticals, Inc., priority 2007, dated 2011).
No end group written: not given here.

How the values were obtained:
[1] = In vitro biological stability of linear epsilon PKC inhibitors in human serum; format: in vitro ADME; settings: LC/MS; for stability in human serum (percent remaining over time): 100 μg/ml, room temperature
Description: The peptides were then analyzed by LC/MS.

brain tissue = assay: Stroke model, percent infarction; format: in vivo; settings: versus uncapped KAI-9706
Description: KAI-1455 was tested in a stroke model.

[2] = versus KAI-9706 and KAI-9803
[3] = versus KAI-9706 and KAI-9803; remark: listed apart in the source
cardiac tissue = assay: Langendorff assay, in vitro post-ischemia model (CK release); set-up: species or system rat; settings: versus the unmodified form
Description: The ability of the capped composition to inhibit ischemic damage in a rat heat model (Langendorff Assay) was evaluated versus the uncapped form.

[4] = Plasma stability of capped peptides (KAI-9706 modified step-wise at amino and carboxy termini); format: in vitro ADME, rat; settings: versus uncapped KAI-9706
Text: Plasma stability of capped peptides was compared.

[5] = versus KAI-9706 and KAI-9803; remark: listed apart in the source
[6] = Effect of D-peptides on plasma stability of KAI-9706; settings: All-L, scrambled or retro-inverso (R/I) carrier and cargo
Description: KAI-9706 was engineered with D-amino acids to determine their impact on peptide composition stability. Unmodified KAI-9706 was compared to a peptide composition with the same amino acid sequence, however the amino acids used were d-enantiomers instead of 1-amino acids. A retro-inverso version and a scrambled version of the peptide composition were also prepared.

Compound: EAVSLKPTGGYGRKKRRQRRR-NH2 [KP-1633]
- stability in human serum (percent remaining over time) [1]: increased stability

Compound: KP-1680: linear epsilon PKC inhibitor peptide shown in FIG. 16 (EAVSLKPTGGYGRKKRRQRRR)
- degradation products / metabolized forms ([1]; serum): sequential cleavage of arginine residues from the C-terminus

Compound: CC[C@H](C)[C@H](NC(=O)[C@@H]1CCCN1C(=O)[C@H](C)NC(=O)[C@H](CC(=O)O)NC(=O)[C@H](Cc1c[nH]cn1)NC(=O)[C@@H](N)CSSC[C@H](NC(C)=O)C(=O)N[C@@H](Cc1ccc(O)cc1)C(=O)NCC(=O)N[C@@H](CCCNC(=N)N)C(=O)N[C@@H](CCCCN)C(=O)N[C@@H](CCCCN)C(=O)N[C@@H](CCCNC(=N)N)C(=O)N[C@@H](CCCNC(=N)N)C(=O)N[C@@H](CCC(N)=O)C(=O)N[C@@H](CCCNC(=N)N)C(=O)N[C@@H](CCCNC(=N)N)C(=O)N[C@@H](CCCNC(=N)N)C(N)=O)C(=O)NCC(=O)N[C@@H](Cc1ccc(O)cc1)C(=O)N[C@@H](CC(=O)O)C(=O)O [KAI-1455]
- protection to brain tissue as judged by percent infract (brain tissue): increased protection to brain tissue
- stability in rat serum (percent intact over time) [2]: increased plasma stability
- stability in pig serum (percent intact over time) [3]: increased plasma stability
- ability to inhibit ischemic damage (potency, CK release) (cardiac tissue): Maintains In Vitro Potency
- plasma half life [4]: increase the plasma half life
- stability in human serum (percent intact over time) [5]: increased plasma stability

Compound: CC[C@H](C)[C@H](NC(=O)[C@@H]1CCCN1C(=O)[C@H](C)NC(=O)[C@H](CC(=O)O)NC(=O)[C@H](Cc1c[nH]cn1)NC(=O)[C@@H](N)CSSC[C@H](N)C(=O)N[C@@H](Cc1ccc(O)cc1)C(=O)NCC(=O)N[C@@H](CCCNC(=N)N)C(=O)N[C@@H](CCCCN)C(=O)N[C@@H](CCCCN)C(=O)N[C@@H](CCCNC(=N)N)C(=O)N[C@@H](CCCNC(=N)N)C(=O)N[C@@H](CCC(N)=O)C(=O)N[C@@H](CCCNC(=N)N)C(=O)N[C@@H](CCCNC(=N)N)C(=O)N[C@@H](CCCNC(=N)N)C(=O)O)C(=O)NCC(=O)N[C@@H](Cc1ccc(O)cc1)C(=O)N[C@@H](CC(=O)O)C(=O)O [KAI-9706]
- % parent remaining at 15 mins [6]: 1%

Compound: Ac-EAVSLKPTGGYGRKKRRQRRR-NH2 [KP-1678]
- stability in human serum (percent remaining over time) [1]: increased stability
